Results: patent publication US20140243416A1, “Topical Antiandrogen Therapy for the Treatment of Becker's Nevus” (priority 2013, published 2014)

Legend:
Becker's nevus = assay: Topical flutamide applied to a Becker's nevus (Example 1, single patient); type: in vivo, person; settings: topical 4% solution, twice daily
Source text: FIG. 1a (left) depicts a person with a Becker's nevus before the antiandrogen treatment as described in example 1. FIG. 1b (right) depicts a person after treatment with a topical antiandrogen, specifically topical flutamide. […] A topical 4% solution of flutamide was applied twice daily to a Becker's nevus. […] (FIG. 1)

[1] = topical application; cited from earlier work

With `CC(C)C(=O)Nc1ccc([N+](=O)[O-])c(C(F)(F)F)c1` [flutamide, methyl-N-[4-nitro-3-(trifluoromethyl)phenyl]-propanamide] the “cutaneous or systemic adverse effects” value (Becker's nevus) was “No cutaneous or systemic adverse effects”, the “pigmentary change in the normal skin surrounding the Becker's nevus” value (Becker's nevus; during treatment) was “no pigmentary change” and the menstrual irregularities (Becker's nevus; patient-reported) was “denied any menstrual irregularities”. For the same molecule, the “absorption into the skin and systemic absorption” value [1] was “systemic absorption is measurable”.
